Assay results published in ChEMBL document CHEMBL1201862, “PubChem BioAssay data set” (2004).
The source made the active and inactive calls.

What was measured:
Cytochrome P450 3A4 = Cytochrome P450 3A4 (Homo sapiens, UniProt P08684);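 further: CYP3A4 tested as one member of a cytochrome P450 panel screen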
Cytochrome P450 1A2 = target: T1, Cytochrome P450 1A2 (Homo sapiens, UniProt P05177);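 further: PubChem cytochrome P450 panel assay, CYP1A2 panel member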
T1 sequence (P05177 whole entry): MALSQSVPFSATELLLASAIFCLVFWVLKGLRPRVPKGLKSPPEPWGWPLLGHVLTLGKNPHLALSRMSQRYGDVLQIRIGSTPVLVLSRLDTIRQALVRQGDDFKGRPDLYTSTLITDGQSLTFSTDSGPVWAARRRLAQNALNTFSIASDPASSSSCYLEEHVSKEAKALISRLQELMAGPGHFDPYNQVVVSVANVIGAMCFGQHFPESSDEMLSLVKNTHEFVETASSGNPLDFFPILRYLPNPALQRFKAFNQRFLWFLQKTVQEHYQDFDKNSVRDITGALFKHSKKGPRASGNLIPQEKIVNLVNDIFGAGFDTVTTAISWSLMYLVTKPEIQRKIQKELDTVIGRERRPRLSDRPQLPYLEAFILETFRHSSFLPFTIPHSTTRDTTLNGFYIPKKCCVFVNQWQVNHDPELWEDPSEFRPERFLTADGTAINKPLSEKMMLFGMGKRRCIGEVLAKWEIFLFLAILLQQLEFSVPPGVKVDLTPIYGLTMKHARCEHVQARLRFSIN

[1] = Luminescence Cell-Based Dose Retest to Confirm Inhibitors of Cancer Stem Cells. [Related pubchem assays (depositor defined):AID2717, AID2721]; format: functional; details: Homo sapiens
Streptokinase A = target: T2, Streptokinase A (Streptococcus pyogenes serotype M1, UniProt P10520); experiment: viability-normalized secreted streptokinase activity reduction – plasminogen activation absorbance, OD405, dose response (AID 1914); format: functional, Streptococcus pyogenes M1 GAS;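 further: secreted streptokinase activity via plasminogen activation per viability signal from cell pellet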
T2 sequence (P10520 whole entry): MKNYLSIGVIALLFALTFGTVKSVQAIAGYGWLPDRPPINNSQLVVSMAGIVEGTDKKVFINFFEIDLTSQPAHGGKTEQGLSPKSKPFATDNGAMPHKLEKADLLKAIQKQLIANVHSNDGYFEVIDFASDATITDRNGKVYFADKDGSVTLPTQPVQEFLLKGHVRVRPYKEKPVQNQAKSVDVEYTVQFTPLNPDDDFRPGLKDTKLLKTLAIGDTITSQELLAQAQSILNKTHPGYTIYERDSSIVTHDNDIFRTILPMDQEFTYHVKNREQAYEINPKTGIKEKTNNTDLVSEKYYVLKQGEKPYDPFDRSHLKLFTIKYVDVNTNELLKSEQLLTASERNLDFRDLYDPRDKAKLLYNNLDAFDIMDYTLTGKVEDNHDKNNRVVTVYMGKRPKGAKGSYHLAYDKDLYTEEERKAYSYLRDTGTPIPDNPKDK

Streptococcus = experiment: GAS UMAA2166 growth inhibition – luminescence, BacTiterGlo, counter-screen for streptokinase expression inhibitor project, dose response (AID 1915); format: functional, organism-based;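 further: potency for reduction of bacterial viability or growth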
[2] = test system: Streptococcus sp. 'group A'; experiment: Streptococcus pyogenes SK(-)GAS viability under kanamycin – luminescence, BacTiterGlo, confirmation, counter-screen for streptokinase expression inhibitor project, dose response (AID 1900); format: functional, organism-based
[3] = fluconazole-exposed Candida albicans growth modulators – fluorescence, retest, confirmation (AID 2467); format: functional, cell-based
[4] = NIH-3T3 fibroblast cytotoxicity, dose response, cytotoxicity control, cell-based, fluorescence, Alamar Blue, secondary assay (AID 2327); format: functional;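 further: NIH-3T3 mouse fibroblasts cultured with fluconazole at 8 µg/mL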
INS1 = experiment: INS-1E survival protection against cytokine death – cell-based, luminescence, retest, dose response (AID 449756); format: functional; details: Rattus norvegicus;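 further: cell death triggered by IL-1 beta plus TNF-alpha plus IFN-gamma mixture; protective hits raise ATP signal compared with cytokine alone wells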
[5] = viability of uninfected HEp-2 cells – cell-based, HTS, cytotoxicity control for RSV inhibitor project, dose response (AID 2410); format: functional; details: human respiratory syncytial virus
Cytochrome P450 2C19 = Cytochrome P450 2C19 (Homo sapiens, UniProt P33261); experiment: Cytochrome panel assay with activity outcomes. Panel member name: p450-cyp2c19 Compounds with AC50 equal or less than 10 uM are considered active; format: functional; details: read-out: AC50
Cytochrome P450 2C19, sequence (P33261 whole entry): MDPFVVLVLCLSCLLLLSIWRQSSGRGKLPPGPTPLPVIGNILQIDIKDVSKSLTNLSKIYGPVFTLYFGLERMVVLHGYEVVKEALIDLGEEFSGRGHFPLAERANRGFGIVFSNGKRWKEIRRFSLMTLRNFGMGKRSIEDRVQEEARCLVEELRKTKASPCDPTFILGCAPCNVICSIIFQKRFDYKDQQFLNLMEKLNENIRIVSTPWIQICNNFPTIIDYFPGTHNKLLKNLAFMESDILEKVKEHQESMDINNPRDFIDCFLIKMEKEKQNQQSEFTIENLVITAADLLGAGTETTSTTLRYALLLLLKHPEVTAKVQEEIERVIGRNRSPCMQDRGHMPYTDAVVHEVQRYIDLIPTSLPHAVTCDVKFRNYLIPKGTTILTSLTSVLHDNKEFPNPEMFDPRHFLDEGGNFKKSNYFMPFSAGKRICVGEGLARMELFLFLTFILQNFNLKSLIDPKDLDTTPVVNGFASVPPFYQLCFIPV

Protein RecA = target: T3, Protein RecA (Mycobacterium tuberculosis, UniProt P9WHJ3); experiment: Fluorescence Cell-Free Homogeneous Dose Retest to Identify Inhibitors of RecA-Intein Splicing Activity. [Related pubchem assays (depositor defined):AID2097, AID2223, AID489010, AID492950]; format: functional
T3 sequence (P9WHJ3 whole entry): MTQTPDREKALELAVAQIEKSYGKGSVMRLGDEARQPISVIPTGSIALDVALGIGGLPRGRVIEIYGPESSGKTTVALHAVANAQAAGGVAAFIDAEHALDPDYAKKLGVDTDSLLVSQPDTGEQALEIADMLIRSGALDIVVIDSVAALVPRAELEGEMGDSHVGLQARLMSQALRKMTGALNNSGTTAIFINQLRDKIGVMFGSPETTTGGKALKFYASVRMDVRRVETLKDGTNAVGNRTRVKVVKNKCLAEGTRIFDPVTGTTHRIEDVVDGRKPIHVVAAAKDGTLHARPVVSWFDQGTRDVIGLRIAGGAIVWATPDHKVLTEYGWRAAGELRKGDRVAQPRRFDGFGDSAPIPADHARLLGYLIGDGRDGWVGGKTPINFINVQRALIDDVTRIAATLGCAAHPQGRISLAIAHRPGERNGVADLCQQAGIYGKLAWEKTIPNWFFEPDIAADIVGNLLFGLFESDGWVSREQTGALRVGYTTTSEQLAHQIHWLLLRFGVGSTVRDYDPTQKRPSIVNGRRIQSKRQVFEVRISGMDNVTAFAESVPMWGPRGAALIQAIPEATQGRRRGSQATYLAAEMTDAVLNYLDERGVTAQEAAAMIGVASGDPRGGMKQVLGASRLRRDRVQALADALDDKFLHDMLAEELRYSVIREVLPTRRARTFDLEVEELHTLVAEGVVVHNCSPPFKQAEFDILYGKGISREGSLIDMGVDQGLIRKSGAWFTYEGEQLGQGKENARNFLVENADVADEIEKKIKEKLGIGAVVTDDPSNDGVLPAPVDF

[6] = NIH3T3 cell viability loss – ATP luminescence, mouse fibroblasts, counter-screen, dose response (AID 2010); format: functional, cell-based;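 further: cells exposed to compound for about 90 hours before reading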
[7] = Trypanosoma cruzi growth suppression in host cells – NIH3T3 host cells, beta-gal luminescence, confirmation (AID 2044); format: functional, cell-based;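 further: intracellular parasites grown in NIH/3T3 mouse fibroblasts as host cells; luminescent beta-galactosidase reporter signal from transgenic T. cruzi replicating inside host cells; inhibitors lower the luminescence signal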

Cytochrome P450 3A4, sequence (P08684 whole entry): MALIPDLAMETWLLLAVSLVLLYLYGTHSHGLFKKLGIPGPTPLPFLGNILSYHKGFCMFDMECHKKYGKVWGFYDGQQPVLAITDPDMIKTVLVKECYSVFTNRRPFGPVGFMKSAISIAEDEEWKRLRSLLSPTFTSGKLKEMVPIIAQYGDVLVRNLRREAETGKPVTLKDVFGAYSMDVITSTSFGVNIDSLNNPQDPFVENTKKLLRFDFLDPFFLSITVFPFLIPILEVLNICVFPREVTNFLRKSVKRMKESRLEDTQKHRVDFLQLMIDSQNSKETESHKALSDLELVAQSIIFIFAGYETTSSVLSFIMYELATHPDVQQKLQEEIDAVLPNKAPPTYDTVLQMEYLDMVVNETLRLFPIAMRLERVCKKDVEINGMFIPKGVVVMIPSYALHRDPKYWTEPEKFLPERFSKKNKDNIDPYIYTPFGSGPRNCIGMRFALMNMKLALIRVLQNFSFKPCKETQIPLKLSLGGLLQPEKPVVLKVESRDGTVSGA

COc1ccc(CNc2cc(-c3ccccc3CN(C)C)ncn2)c(OC)c1
AC50 (Cytochrome P450 3A4): 15.8 µM (inconclusive)
AC50 (Cytochrome P450 1A2): 15.8 µM (inconclusive)

Cc1[nH]n(-c2ccccc2)c(=O)c1/C=C1/C(=O)NN(c2ccc(F)cc2)C1=O
AC50 [1]: 4.08 µM (active)

Cc1ccc(N=Nc2c(N)nn3c(O)c4c(nc23)CCCC4)cc1
AC50 (Cytochrome P450 3A4): 7.94 µM (inconclusive)

CCCC(O)(c1ccc(Cl)cc1)C(CN1CCOCC1)c1ccc(Cl)cc1 (stereo not drawn)
AC50 [1]: 6 µM (active)

CC(COc1ccc(C(C)C)cc1)NC(=O)c1ccc(Br)o1 (stereo not drawn)
EC50 (Streptokinase A): > 150 µM (not active)
EC50 (Streptococcus): > 150 µM (not active)
EC50 [2]: 45.6 µM (active)

COc1ccc(-c2csc(N(CC3CCCO3)C(=O)c3ccco3)n2)cc1 (stereo not drawn)
EC50 [3]: > 38 µM (not active)
EC50 [4]: > 160 µM (inactive)

O=C1CCCC=C1[C@H](CCc1ccccc1)OC(=O)c1ccc(Br)cc1
AC50 (Cytochrome P450 3A4): 5.01 µM (inconclusive)

NS(=O)(=O)Cc1noc2ccccc12
AC50 (Cytochrome P450 3A4): 31.6 µM (inconclusive)

CC1(C)CC[C@]2(CO)CC[C@]3(C)C(=CCC4[C@@]5(C)CC[C@H](O)[C@@](C)(CO)C5CC[C@]43C)[C@@H]2C1 (stereo partly drawn)
AC50 [1]: 3.13 µM (active)

C/C(=N/NC(=O)c1cc(-c2ccccc2)nc2c(Cl)cccc12)c1cccnc1
EC50 (Streptokinase A): 25.9 µM (inconclusive)
EC50 (Streptococcus): > 150 µM (not active)
EC50 [2]: > 150 µM (not active)

Cc1ccccc1-c1ccnc2[nH]n(-c3ccccc3)c(=O)c12
EC50 [3]: > 38 µM (not active)
EC50 [4]: > 160 µM (inactive)

O=C(Nc1ccccc1)N1CC[C@@]2(CCCN(C(=O)c3ccncc3)C2)C1
AC50 (Cytochrome P450 3A4): 15.8 µM (inconclusive)

O=C(Nc1ccc(F)cc1)N1CCCCCC1
EC50 (Streptokinase A): > 150 µM (not active)
EC50 (Streptococcus): > 150 µM (not active)
EC50 [2]: > 150 µM (not active)

CSc1ccc(C2=CC(=O)C[C@H](c3ccc(Cl)cc3)C2)cc1
AC50 [1]: 1.7 µM (active)

COc1ccc(NC(=O)N2CCCC3(CCN(C(=O)c4cccc(F)c4)CC3)C2)cc1
AC50 (Cytochrome P450 3A4): 15.8 µM (inconclusive)

O=C(Nc1ccc(O)cc1)c1ccc(NC(=O)c2cccs2)cc1
AC50 [1]: 3.51 µM (active)

CCc1c(C)sc2nc(C(C)C)nc(SCC(=O)N3CCc4ccccc4C3)c12
EC50 (Streptokinase A): 2.38 µM (active)
AC50 (INS1): 1.94 µM (active)
EC50 (Streptococcus): 15.1 µM (active)
AC50 [1]: 4.63 µM (active)
EC50 [2]: 9.77 µM (active)

O=C(CC1CC2CCC1C2)NCCc1ccc(Cl)cc1 (stereo not drawn)
AC50 (INS1): > 260 µM (inactive)

CC(C)C(=O)NC(c1ccccc1)c1cc([N+](=O)[O-])c2cccnc2c1O (stereo not drawn)
EC50 (Streptokinase A): > 150 µM (not active)
AC50 (INS1): 6.59 µM (active)
EC50 (Streptococcus): 2.98 µM (active)
AC50 [1]: 1.27 µM (active)
EC50 [2]: 2.12 µM (active)

CCCC(=O)N1c2ccccc2C(N(C(C)=O)c2ccccc2)CC1C (stereo not drawn)
AC50 (Cytochrome P450 3A4): 0.891 µM (inconclusive)

O=C1NC[C@@H](Cc2cccc3ccccc23)N(CCCCC2CCCCC2)C1=O
EC50 (Streptococcus): 7.07 µM (active)
AC50 [1]: 3.84 µM (active)
EC50 [2]: 3.38 µM (active)

Cc1cc(OCc2nc(-c3ccc(NC(=O)c4cccnc4)cc3)no2)ccc1Cl
AC50 (INS1): 0.624 µM (active)
CC50 [5]: > 50 µM (active)

COc1cc(/C=C(\C#N)c2ccccn2)ccc1OCC(=O)Nc1ccc(Br)cc1
AC50 [1]: 1.71 µM (active)

O=C1NN(c2ccc(F)cc2)C(=O)/C1=C/c1cccs1
EC50 [3]: > 38 µM (not active)
EC50 [4]: > 160 µM (inactive)

Cc1cc2nc(C3CCCN(C(S)=Nc4ccccc4)C3)[nH]c2cc1C (stereo not drawn)
AC50 (Cytochrome P450 3A4): 0.141 µM (inconclusive)
AC50 (Cytochrome P450 2C19): 7.08 µM (inconclusive)
AC50 (Cytochrome P450 1A2): 1.58 µM (inconclusive)

CCN=C(S)N1N=C2c3ccccc3CCC2C1c1ccc(F)cc1 (stereo not drawn)
AC50 [1]: 1.46 µM (active)

CC1=NN(c2cccc(Cl)c2)C(=O)C12CC(C)=C(C)CS2 (stereo not drawn)
EC50 (Protein RecA): 13.2 µM (active)

COc1ccc(NC(=O)N2CCCC3(CCN(C(=O)c4cc(C(F)(F)F)cc(C(F)(F)F)c4)CC3)C2)cc1
AC50 (Cytochrome P450 3A4): 10 µM (inconclusive)

COc1ccc(CNC(=O)Cc2csc(NC(=O)Nc3ccccc3OC)n2)cc1
EC50 (Streptokinase A): > 150 µM (not active)
EC50 (Streptococcus): > 150 µM (not active)
EC50 [2]: > 150 µM (not active)

CCC(C)n1c(-c2cccs2)nc2nc3ccccc3nc21 (stereo not drawn)
AC50 [1]: 2.73 µM (active)

CCN(CC)CCN(C(=O)C1=COCCO1)c1nc2cc(C)cc(C)c2s1
EC50 (Streptokinase A): > 150 µM (not active)
EC50 (Streptococcus): > 150 µM (not active)
EC50 [2]: > 150 µM (not active)

O=c1c2cc(Br)ccc2nc(-c2ccccc2)n1O
EC50 [3]: 1.99 µM (active)
EC50 [4]: 70.4 µM (active)

CC(C)N=C(S)NC(c1ccccc1)(c1ccccc1)c1ccccc1
EC50 [6]: > 60 µM (not active)
AC50 (INS1): 8.18 µM (active)
EC50 (Streptococcus): > 150 µM (not active)
EC50 [2]: 6.6 µM (active)
EC50 [7]: 3.99 µM (active)

CCn1nnnc1NC(=O)c1cc(Cl)c(OC)c(Cl)c1
EC50 [3]: 2.51 µM (active)
EC50 [4]: > 160 µM (inactive)

COc1cc(/C=N/Nc2nc(Nc3ccccc3)nc(-n3nc(C)cc3C)n2)cc(OC)c1OC
EC50 [6]: 7.23 µM (active)
EC50 (Streptokinase A): > 150 µM (not active)
EC50 (Streptococcus): 13.8 µM (active)
AC50 [1]: 3.63 µM (active)
EC50 [2]: 5.1 µM (active)
EC50 [7]: 0.737 µM (active)

Oc1ccc(Oc2ccc(Oc3ccc(O)cc3)cc2)cc1
EC50 (Streptokinase A): > 150 µM (not active)
EC50 (Streptococcus): 18.4 µM (active)
EC50 [2]: 8.4 µM (active)

COc1ccc(N2C(=O)NC3CC2(C)Oc2ccccc23)cc1OC (stereo not drawn)
AC50 (Cytochrome P450 3A4): 22.4 µM (inconclusive)
AC50 (Cytochrome P450 2C19): 7.94 µM (inconclusive)

Cc1ccc(NC(S)=NC2CCCC2)cc1
AC50 (Cytochrome P450 3A4): 10 µM (inconclusive)

O=C(NC(=S)Nc1cccc(-c2ccc(CO)o2)c1)c1cccs1
EC50 (Streptokinase A): > 150 µM (not active)
EC50 (Streptococcus): 68.4 µM (active)
EC50 [2]: 23.1 µM (active)

COCc1ccc(O)c2ncccc12
AC50 (INS1): 5 µM (active)
